Values after ≈ are worked out from the molar mass of the structure shown. Like-named read-outs stand apart in the source and are kept apart here.
Experiments:
A. baumannii ATCC19606 = tested on: A. baumannii ATCC19606
Description: (§1) Antimicrobial activity was determined for all peptides on E. coli W3110, P. aeruginosa PAO1, A. baumannii ATCC19606, K. pneumoniae NCTC418, and methicillin-resistant S. aureus COL and for selected peptides on P. aeruginosa PA14 and the polymyxin B-resistant derivatives PA14 4.13, PA14 4.18, and PA14 2P4 as well as the clinical isolates ZEM-1A and ZEM9A, K. pneumoniae OXA-48, Enterobacter cloacae, Stenotrophomonas maltophilia, B. cenocepacia, and Staphylococus epidermis. To determine the MIC, the broth microdilution method was used.[75] A single bacterial colony was grown in LB medium overnight at 37 °C and 180 rpm shaking. The compounds were prepared as stock solutions of 2 mg/mL in sterilized milliQ deionized water, added to the first well of 96-well sterile, polypropylene round-bottom microtiter plates (TPP, untreated, Corning Incorporated, Kennebunk, USA), and diluted serially by 1/2. […] The bacterial inoculum was prepared by measuring the absorbance of the overnight culture, which was diluted to concentration of the bacteria was quantified by measuring absorbance at 600 nm and diluted to an OD600 of 0.022 in MH medium pH 7.4 (Sigma-Aldrich, Buchs, Switzerland). The sample solutions (150 μL) were mixed with 4 μL of diluted bacterial suspension with a final inoculation of about 5 × 10^5 CFU. For each test, two columns of the plate were kept for sterility control (MH medium only) and growth control (MH medium with bacterial inoculum, no compound). […] The plates were incubated at 37 °C for 16–20 h under static conditions. 15 μL of 3-(4,5-dimethylthiazol-2-yl)-2,5-diphenyltetrazolium bromide (MTT)[76] (1 mg/mL in sterilized milliQ deionized water) was added to each well, and the plates were incubated at room temperature until MTT staining was completed. The MIC was defined as the lowest concentration of the dendrimer that inhibits the visible growth of the tested bacteria (yellow) with the unaided eye.

S. aureus COL MRSA = conditions: for MIC S. aureus COL MRSA: MH broth pH 7.4, 16–20 h, 37 °C; for MIC S. aureus COL: supplementary CSV, ranges of Table 1 given as one number
Description: as §1

P. aeruginosa PAO1 = tested on: P. aeruginosa PAO1
Description: as §1

K. pneumoniae NCTC418 = tested on: K. pneumoniae NCTC418
Description: as §1

E. coli W3110 = tested on: E. coli W3110
Description: as §1

[1] = MH broth pH 7.4, 16–20 h, 37 °C
[2] = supplementary CSV, ranges of Table 1 given as one number

Row | SMILES | MIC A. baumannii ATCC19606 (A. baumannii ATCC19606; [1]) | MIC A. baumannii ATCC19606 (A. baumannii ATCC19606; [2]) | MIC S. aureus COL MRSA (S. aureus COL MRSA) | MIC S. aureus COL (S. aureus COL MRSA) | MIC P. aeruginosa PAO1 (P. aeruginosa PAO1; [1]) | MIC P. aeruginosa PAO1 (P. aeruginosa PAO1; [2]) | MIC K. pneumoniae NCTC418 (K. pneumoniae NCTC418; [1]) | MIC K. pneumoniae NCTC418 (K. pneumoniae NCTC418; [2]) | MIC E. coli W3110 (E. coli W3110; [1]) | MIC E. coli W3110 (E. coli W3110; [2])
1 | CC(C)C[C@H](NC(=O)[C@H](CC(C)C)NC(=O)[C@H](CC(C)C)NC(=O)[C@H](CCCCN)NC(=O)[C@@H](CC(C)C)NC(=O)[C@@H](CC(C)C)NC(=O)[C@H](CCCCN)NC(=O)[C@H](CC(C)C)NC(=O)[C@H](CC(C)C)NC(=O)[C@H](CCCCN)NC(=O)[C@@H](N)CCCCN)C(N)=O [HP6, KKLLKllKLLL] | 4 µg/mL (≈ 3.03 µM) | 4 µg/mL (≈ 3.03 µM) | 16 µg/mL (≈ 12.1 µM) | 16 µg/mL (≈ 12.1 µM) | 8 µg/mL (≈ 6.05 µM) | 8 µg/mL (≈ 6.05 µM) | 64 µg/mL (≈ 48.4 µM) | 64 µg/mL (≈ 48.4 µM) | 2 µg/mL (≈ 1.51 µM) | 
2 | CC(C)C[C@H](NC(=O)[C@@H](CC(C)C)NC(=O)[C@H](CC(C)C)NC(=O)[C@@H](CCCCN)NC(=O)[C@H](CC(C)C)NC(=O)[C@@H](CC(C)C)NC(=O)[C@H](CCCCN)NC(=O)[C@@H](CC(C)C)NC(=O)[C@H](CC(C)C)NC(=O)[C@@H](CCCCN)NC(=O)[C@@H](N)CCCCN)C(N)=O [HP30, KkLlKlLkLlL] | 32 µg/mL (≈ 24.2 µM) | 32 µg/mL (≈ 24.2 µM) | 64 µg/mL (≈ 48.4 µM) | 64 µg/mL (≈ 48.4 µM) | 8 to 16 µg/mL | 12 µg/mL (≈ 9.08 µM) | >64 µg/mL |  | 8 µg/mL (≈ 6.05 µM) | 
3 | CC(C)C[C@H](NC(=O)[C@@H](CC(C)C)NC(=O)[C@@H](CC(C)C)NC(=O)[C@H](CCCCN)NC(=O)[C@H](CC(C)C)NC(=O)[C@H](CC(C)C)NC(=O)[C@H](CCCCN)NC(=O)[C@H](CC(C)C)NC(=O)[C@@H](CC(C)C)NC(=O)[C@@H](CCCCN)NC(=O)[C@@H](N)CCCCN)C(N)=O [HP17, KklLKLLKllL] | 32 µg/mL (≈ 24.2 µM) | 32 µg/mL (≈ 24.2 µM) | 32 to 64 µg/mL | 48 µg/mL (≈ 36.3 µM) | 16 µg/mL (≈ 12.1 µM) | 16 µg/mL (≈ 12.1 µM) | 32 to 64 µg/mL | 48 µg/mL (≈ 36.3 µM) | 8 µg/mL (≈ 6.05 µM) | 
4 | CC(C)C[C@H](NC(=O)[C@H](CC(C)C)NC(=O)[C@@H](CCCCN)NC(=O)[C@H](CC(C)C)NC(=O)[C@H](CC(C)C)NC(=O)[C@@H](CCCCN)NC(=O)[C@H](CC(C)C)NC(=O)[C@H](CC(C)C)NC(=O)[C@@H](CCCCN)NC(=O)[C@H](N)CCCCN)C(=O)N[C@H](CC(C)C)C(N)=O [HP27, kkLLkLLkLLl] | 32 µg/mL (≈ 24.2 µM) | 32 µg/mL (≈ 24.2 µM) | 32 µg/mL (≈ 24.2 µM) | 32 µg/mL (≈ 24.2 µM) | 8 µg/mL (≈ 6.05 µM) | 8 µg/mL (≈ 6.05 µM) | >64 µg/mL |  | 4 µg/mL (≈ 3.03 µM) | 
5 | CC(C)C[C@H](NC(=O)[C@H](CC(C)C)NC(=O)[C@@H](CCCCN)NC(=O)[C@H](CC(C)C)NC(=O)[C@H](CC(C)C)NC(=O)[C@@H](CCCCN)NC(=O)[C@@H](CC(C)C)NC(=O)[C@H](CC(C)C)NC(=O)[C@H](CCCCN)NC(=O)[C@@H](N)CCCCN)C(=O)N[C@H](CC(C)C)C(N)=O [HP23, KKLlkLLkLLl] |  |  | 32 µg/mL (≈ 24.2 µM) | 32 µg/mL (≈ 24.2 µM) | 4 to 8 µg/mL | 6 µg/mL (≈ 4.54 µM) | >64 µg/mL |  | 2 µg/mL (≈ 1.51 µM) | 
6 | CC(C)CC(NC(=O)C(CC(C)C)NC(=O)C(CC(C)C)NC(=O)C(CCCCN)NC(=O)C(CC(C)C)NC(=O)[C@H](CC(C)C)NC(=O)C(CCCCN)NC(=O)C(CC(C)C)NC(=O)C(CC(C)C)NC(=O)C(CCCCN)NC(=O)C(N)CCCCN)C(N)=O (mixture of isomers) [sr-ln65L^6] | 8 µg/mL (≈ 6.05 µM) | 8 µg/mL (≈ 6.05 µM) | 16 µg/mL (≈ 12.1 µM) | 16 µg/mL (≈ 12.1 µM) | 8 µg/mL (≈ 6.05 µM) | 8 µg/mL (≈ 6.05 µM) | 16 to 32 µg/mL |  | 4 µg/mL (≈ 3.03 µM) | 
7 | CC(C)CC(NC(=O)C(CC(C)C)NC(=O)C(CC(C)C)NC(=O)C(CCCCN)NC(=O)C(CC(C)C)NC(=O)C(CC(C)C)NC(=O)C(CCCCN)NC(=O)C(CC(C)C)NC(=O)C(CC(C)C)NC(=O)C(CCCCN)NC(=O)C(N)CCCCN)C(N)=O (racemic) [sr-ln65] | 4 µg/mL (≈ 3.03 µM) |  | 8 µg/mL (≈ 6.05 µM) |  | 4 µg/mL (≈ 3.03 µM) |  | 16 to 32 µg/mL |  | 4 µg/mL (≈ 3.03 µM) | 
8 | CC(C)C[C@@H](NC(=O)[C@@H](CC(C)C)NC(=O)[C@@H](CC(C)C)NC(=O)[C@@H](CCCCN)NC(=O)[C@@H](CC(C)C)NC(=O)[C@@H](CC(C)C)NC(=O)[C@@H](CCCCN)NC(=O)[C@@H](CC(C)C)NC(=O)[C@@H](CC(C)C)NC(=O)[C@@H](CCCCN)NC(=O)[C@H](N)CCCCN)C(N)=O [dln65, kkllkllklll] | 4 µg/mL (≈ 3.03 µM) | 4 µg/mL (≈ 3.03 µM) | 2 to 4 µg/mL | 3 µg/mL (≈ 2.27 µM) | 2 to 4 µg/mL | 3 µg/mL (≈ 2.27 µM) | 4 µg/mL (≈ 3.03 µM) | 4 µg/mL (≈ 3.03 µM) | 2 to 4 µg/mL | 3 µg/mL (≈ 2.27 µM)
9 | CC(C)C[C@H](NC(=O)[C@H](CC(C)C)NC(=O)[C@H](CC(C)C)NC(=O)[C@H](CCCCN)NC(=O)[C@H](CC(C)C)NC(=O)[C@@H](CC(C)C)NC(=O)[C@H](CCCCN)NC(=O)[C@@H](CC(C)C)NC(=O)[C@@H](CC(C)C)NC(=O)[C@@H](CCCCN)NC(=O)[C@@H](N)CCCCN)C(N)=O [HP12, KkllKlLKLLL] | 8 µg/mL (≈ 6.05 µM) | 8 µg/mL (≈ 6.05 µM) | 4 µg/mL (≈ 3.03 µM) | 4 µg/mL (≈ 3.03 µM) | 4 to 8 µg/mL | 6 µg/mL (≈ 4.54 µM) | 8 to 16 µg/mL |  | 2 to 4 µg/mL | 3 µg/mL (≈ 2.27 µM)
10 | CC(C)C[C@H](NC(=O)[C@H](CC(C)C)NC(=O)[C@H](CC(C)C)NC(=O)[C@H](CCCCN)NC(=O)[C@@H](CC(C)C)NC(=O)[C@@H](CC(C)C)NC(=O)[C@H](CCCCN)NC(=O)[C@@H](CC(C)C)NC(=O)[C@@H](CC(C)C)NC(=O)[C@H](CCCCN)NC(=O)[C@@H](N)CCCCN)C(N)=O [HP14, KKllKllKLLL] | 4 to 8 µg/mL | 6 µg/mL (≈ 4.54 µM) | 16 to 32 µg/mL |  | 8 µg/mL (≈ 6.05 µM) | 8 µg/mL (≈ 6.05 µM) | >64 µg/mL |  | 2 µg/mL (≈ 1.51 µM) | 
11 | CC(C)C[C@H](NC(=O)[C@H](CC(C)C)NC(=O)[C@H](CC(C)C)NC(=O)[C@H](CCCCN)NC(=O)[C@@H](CC(C)C)NC(=O)[C@@H](CC(C)C)NC(=O)[C@@H](CCCCN)NC(=O)[C@H](CC(C)C)NC(=O)[C@H](CC(C)C)NC(=O)[C@H](CCCCN)NC(=O)[C@@H](N)CCCCN)C(N)=O [HP9, KKLLkllKLLL] |  |  | >64 µg/mL |  | 64 µg/mL (≈ 48.4 µM) | 64 µg/mL (≈ 48.4 µM) | >64 µg/mL |  | 8 µg/mL (≈ 6.05 µM) | 

From article PMC10258794, “To Fold or Not to Fold: Diastereomeric Optimization of an α-Helical Antimicrobial Peptide” (Journal of Medicinal Chemistry, 2023)
